Assay results from publication PMC10003159, “Transcytosable Peptide-Paclitaxel Prodrug Nanoparticle for Targeted Treatment of Triple-Negative Breast Cancer” (International Journal of Molecular Sciences, 2023).
Where a SMILES comes first, the peptide text is derived from it. Where no end group is shown, it is not given here. The star is where a group is joined. X1 = CC(=O)O[C@H]1C(=O)[C@@]2(C)[C@H]([C@H](OC(=O)c3ccccc3)[C@]3(O)C[C@H](OC(=O)[C@H](OC(=O)CCC(=O)NCCN4C(=O)CC(*)C4=O)[C@@H](NC(=O)c4ccccc4)c4ccccc4)C(C)=C1C3(C)C)[C@]1(OC(C)=O)CO[C@@H]1C[C@@H]2O

How the values were obtained:
4T1-mCherry-Luc cells = assay: Wound healing migration assay; type: cell-based; conditions: 24 h, mean ± SEM, n = 3
Method: The effect of PTX-SM-TAR NPs and PTX on 4T1-mCherry-Luc cell migration was evaluated with wound-healing assay. 4T1-mCherry-Luc cells were seeded in 6-well plates at a density of 3 × 10^5 cells per well. After overnight culture, the cells were wounded linearly by a 200 µL pipette tip. […] Images of 0 and 24 h were captured by an inverted microscope.

4T1-mCherry-Luc tumor = assay: In vivo antitumor efficacy, subcutaneous TNBC model; design: species or system mice; conditions: tail vein every two days, 16 d, n = 7
Method: Healthy female BALB/c mice (18–20 g) were purchased from Shandong University Laboratory Animal Center. Mice were housed in a pathogen-free environment under conditions of 25 ± 2 °C, 50 ± 5% relative humidity, and 12-h light/dark cycles. They were provided with food and water ad libitum. All animal experiment protocols were approved by the Ethics Committee of School of Pharmaceutical Sciences, Shandong University (22017) and implemented according to the regulations of the Shandong Council on Animal Care. To establish the mice TNBC model, 1.0 × 10^6 4T1-mCherry-Luc cells were subcutaneously injected into the left forelimb armpit of mice. […] solution was injected into mice through the abdominal and reacted with 4T1-mCherry-Luc cells to produce bioluminescence. Then, the fluorescence signals were observed and counted by an IVIS Spectrum imaging system (IVIS Kinetic).
Four days after tumor cell implantation, mice were randomly divided into four groups (n = 7). Seven mice in each group, a total of twenty-eight mice were used. Then, saline, TAR peptide (10.6 mg/kg), PTX (4 mg/kg), and PTX-SM-TAR NPs (15.6 mg/kg) were injected through the tail vein every two days. Tumor size and body weight were measured every 4 d. After 16 d of treatment, mice were sacrificed and tumors were removed, weighed, and further analyzed.

EA.hy926 cells = assay: Cytotoxicity against normal cells; type: cell-based; conditions: Figure S5, n = 3
[1] = tested on: 4T1-mCherry-Luc 3D tumor spheroids; assay: Penetration in 3D tumor spheroids; type: cell-based; conditions: 4 h incubation, LSCM, scanned at 10 μm interval
Method: After adding 150–200 μL of 2% agarose solution to each well, the 48-well plate was placed on the ultra-clean bench under UV irradiation for 30 min before solidification. The 4T1-mCherry-Luc cells were planted into the plate at the density of 4 × 10^4 cells per well and cultured in the incubator for one week. After the cells aggregated into spherical shapes, tumor spheroids were transferred to confocal dishes and incubated with PTX-SM-TAR/C6 NPs and coumarin-6 solution for 2 and 4 h. The tumor spheroids were washed with PBS, fixed with 4% paraformaldehyde for 30 min, and observed with LSCM.

Neuropilin 1 (NRP-1) = Neuropilin 1 (NRP-1) (UniProt O14786 22-923, The paper says only 'purified NRP-1 protein', immobilized on a CM5 chip. Species, construct and supplier are not printed. Human ectodomain (signal peptide removed, extracellular 22-856) is taken by co); assay: SPR; Biacore T200; purified NRP-1 immobilised on a CM5 chip; gradient-diluted TAR peptide flowed over; HBS-EP running buffer; conditions: both partners purified
Neuropilin 1 (NRP-1), sequence (O14786 22-923): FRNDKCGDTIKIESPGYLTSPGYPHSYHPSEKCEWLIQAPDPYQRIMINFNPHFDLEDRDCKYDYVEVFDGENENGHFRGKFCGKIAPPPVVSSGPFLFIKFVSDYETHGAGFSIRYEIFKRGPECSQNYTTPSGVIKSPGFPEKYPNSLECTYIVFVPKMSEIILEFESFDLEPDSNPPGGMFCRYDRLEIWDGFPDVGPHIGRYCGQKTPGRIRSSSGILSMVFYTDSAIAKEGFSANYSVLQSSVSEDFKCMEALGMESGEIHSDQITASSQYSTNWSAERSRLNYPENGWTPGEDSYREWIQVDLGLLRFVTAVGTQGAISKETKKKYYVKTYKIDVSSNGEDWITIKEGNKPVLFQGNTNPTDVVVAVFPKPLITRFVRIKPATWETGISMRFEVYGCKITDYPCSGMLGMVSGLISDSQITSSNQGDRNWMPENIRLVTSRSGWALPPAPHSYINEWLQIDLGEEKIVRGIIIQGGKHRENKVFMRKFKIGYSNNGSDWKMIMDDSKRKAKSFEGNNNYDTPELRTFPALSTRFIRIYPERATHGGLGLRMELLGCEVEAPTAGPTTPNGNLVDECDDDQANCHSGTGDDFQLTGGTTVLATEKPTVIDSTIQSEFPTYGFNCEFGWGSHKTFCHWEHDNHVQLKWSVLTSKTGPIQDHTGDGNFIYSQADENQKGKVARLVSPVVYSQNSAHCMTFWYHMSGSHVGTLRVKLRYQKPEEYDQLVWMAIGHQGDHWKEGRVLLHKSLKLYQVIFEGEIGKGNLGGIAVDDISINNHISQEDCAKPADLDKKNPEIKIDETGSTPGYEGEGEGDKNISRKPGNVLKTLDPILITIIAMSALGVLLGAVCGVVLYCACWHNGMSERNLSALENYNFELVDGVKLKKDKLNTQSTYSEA

## CC(=O)O[C@H]1C(=O)[C@@]2(C)[C@H]([C@H](OC(=O)c3ccccc3)[C@]3(O)C[C@H](OC(=O)[C@H](O)[C@@H](NC(=O)c4ccccc4)c4ccccc4)C(C)=C1C3(C)C)[C@]1(OC(C)=O)CO[C@@H]1C[C@@H]2O [PTX, paclitaxel]
4T1-mCherry-Luc cells; 10 nM
  migration rate: 32.53 ± 1.43%
4T1-mCherry-Luc cells; 100 nM
  migration rate: 18.96 ± 2.76%
4T1-mCherry-Luc tumor
  body weight of mice during the experiment: remained stable
4T1-mCherry-Luc tumor; TAR 10.6 mg/kg, PTX 4 mg/kg, PTX-SM-TAR NPs 15.6 mg/kg, tumor weight
  tumor inhibition rate: 28.47%
EA.hy926 cells
  toxicity to normal cells: slight toxicity to normal cells in the low-concentration

## CC(=O)O[C@H]1C(=O)[C@@]2(C)[C@H]([C@H](OC(=O)c3ccccc3)[C@]3(O)C[C@H](OC(=O)[C@H](OC(=O)CCC(=O)NCCN4C(=O)CC(SC[C@H](N)C(=O)N[C@@H](CCCNC(=N)N)C(=O)N[C@@H](CCCCN)C(=O)N[C@@H](CCCCN)C(=O)N[C@@H](CCCNC(=N)N)C(=O)N[C@@H](CCCNC(=N)N)C(=O)N[C@@H](CCC(N)=O)C(=O)N[C@@H](CCCNC(=N)N)C(=O)N[C@@H](CCCNC(=N)N)C(=O)N[C@@H](CCCNC(=N)N)C(=O)N[C@@H](C)C(=O)N[C@H](C(=O)N[C@@H](Cc5c[nH]c6ccccc56)C(=O)N[C@@H](CC(C)C)C(=O)N5CCC[C@H]5C(=O)N5CCC[C@H]5C(=O)N[C@@H](CCCNC(=N)N)C(=O)O)[C@@H](C)O)C4=O)[C@@H](NC(=O)c4ccccc4)c4ccccc4)C(C)=C1C3(C)C)[C@]1(OC(C)=O)CO[C@@H]1C[C@@H]2O (stereo partly shown) [PTX-SM-TAR NPs] (H-C(X1)RKKRRQRRRATWLPPR-OH)
4T1-mCherry-Luc tumor
  body weight of mice during the experiment: remained stable
EA.hy926 cells
  toxicity to normal cells: same trend as the PTX

## CCN(CC)c1ccc2cc(-c3nc4ccccc4s3)c(=O)oc2c1 [coumarin-6]
[1]
  fluorescence distribution in tumor spheroids along Z-axis: gradually disappeared after the Z-axis exceeded 60 μm

## CRKKRRQRRRATWLPPR [TAR]
4T1-mCherry-Luc tumor
  body weight of mice during the experiment: remained stable

B1: TAR peptide (peptide)
peptide: CRKKRRQRRRATWLPPR
notes: also called fused peptide TAR; bifunctional fusion peptide of TAT and A7R; source: synthetic peptide (China Peptide Co., Ltd.)
Neuropilin 1 (NRP-1)
  Kd: 34 nM
